Earlier results, collected in patent publication US7482343B2, “Compounds, methods and compositions” (Cytokinetics, Inc., priority 2002, dated 2009).

Test system: A549 cells
Conditions: data provided by National Cancer Institute

SMILES: NC(=O)NO [hydroxyurea]
- GI50: 500000 nM

SMILES: O=c1[nH]cc(F)c(=O)[nH]1 [5-fluorouracil]
- GI50: 1000 nM

SMILES: CC(=O)O[C@H]1C(=O)[C@@]2(C)[C@H]([C@H](OC(=O)c3ccccc3)[C@]3(O)C[C@H](OC(=O)[C@H](O)[C@@H](NC(=O)c4ccccc4)c4ccccc4)C(C)=C1C3(C)C)[C@]1(OC(C)=O)CO[C@@H]1C[C@@H]2O [paclitaxel]
- GI50: 4 nM

SMILES: COc1cccc2c1C(=O)c1c(O)c3c(c(O)c1C2=O)C[C@@](O)(C(=O)CO)C[C@@H]3O[C@H]1C[C@H](N)[C@H](O)[C@H](C)O1 [doxorubicin]
- GI50: 63 nM
